Experimental data from patent US20230115176A1 (Ra Pharmaceuticals, Inc., priority 2019, published 2023).

How the values were obtained:
[1] = target: human C5 complement protein (Homo sapiens, UniProt P01031); test: Surface plasmon resonance (SPR), immobilized human C5, 37° C. (Example 12, Table 21); format: binding; details: where a range of compound concentrations were analyzed, the lowest value obtained
Description: (§1) Compound CU0136 is a racemic mixture of Compound CU0186 and CU0187. Numbers in parenthesis following compound numbers indicate alternate enantiomers (as distinguished by retention time during chromatographical separation).

Human C5 [2] = target: T1, Human C5 (Homo sapiens, UniProt P01031); test: Red blood cell (RBC) hemolysis assay, luminescent (Example 13, Table 22); format: cell-based; details: sheep EA cells, […] C5-depleted human serum, 0.5 nM human C5, 1 hour 37° C., luminescence; further: 1.5% C5-depleted human serum
T1 construct: purchased Complement Technology
Description: as §1

Human C5 [3] = target: T1, Human C5; test: Surface plasmon resonance (SPR), compounds on immobilized human C5 (Example 2, Table 5); format: binding; details: lowest value where a range of compound concentrations were analyzed
Description: Surface plasmon resonance (SPR) technology was used to evaluate affinity, specificity, and kinetics of interactions between compounds and complement protein C5 in real time without the need for labeling.
SensiQ FE SPR system (SensiQ Technologies, Oklahoma City, Okla.) was used to provide sensitive and accurate detection of binding of small molecules to the very large C5 protein (MW=195,000 Da). The chip was prepared by preconditioning the sensor according to the protocol of the SensiQ FE using 10 mM HCl, 50 mM NAOH and 0.1% SDS. The sensor chip was activated by using a mixture of fresh EDAC (1-ethyl-3-(-3-dimethylaminopropyl) carbodiimide) (Sigma Co., St. Louis, Mo.) and NHS (N-hydroxy succinimide) (Sigma Co., St. Louis, Mo.). Human C5 was surface immobilized to a Pioneer Biosensor chip via random amine coupling (>12,000 RU) which makes use of the N-terminus and ε-amino groups of lysine residues of the protein ligand. Immobilization was done by injecting 30-40 μg/ml C5 in 10 mM NaAc pH 4.5 onto designated channels at a rate of 10 μL/minute for 12 minutes, targeting RL>12000 RU for small molecules.
Compounds were diluted in DMSO in a format of 100-fold final concentration and 3-fold serial dilution (5 or 6 dilutions). The 100-fold compounds were transferred to one-fold DMSO-free assay buffer in the 96-well test plate. The compound solution was injected at a rate of 60 μL/minute for 30-60 seconds, followed by 60-90 seconds dissociation time, buffer flushing and/or priming. Blank solution (1% DMSO assay buffer) was run for every 6 injections of compounds. Double reference by subtracting both blank channel and reference channel was applied for data processing. Titration of C5 binding compounds to the C5-immobilized biosensor chip surface led to interactions between C5 and potential binders, and the resulting changes of surface refractive index were sensitively measured by the system.
SPR data were analyzed with the managing software provided by SensiQ and equilibrium dissociation constant (KD) values were determined for each compound. Where a range of compound concentrations were analyzed, the lowest value obtained is presented.

purified human C5 = purified human C5 (Homo sapiens, UniProt P01031); test: Red blood cell hemolysis assay, optical, absorbance 412 nm (Example 3, Table 6); format: cell-based; details: antibody-sensitized sheep erythrocytes, 1.5% human C5 depleted sera, 0.5 nM human C5; average where replicates
Chain of purified human C5 (P01031 19-1676): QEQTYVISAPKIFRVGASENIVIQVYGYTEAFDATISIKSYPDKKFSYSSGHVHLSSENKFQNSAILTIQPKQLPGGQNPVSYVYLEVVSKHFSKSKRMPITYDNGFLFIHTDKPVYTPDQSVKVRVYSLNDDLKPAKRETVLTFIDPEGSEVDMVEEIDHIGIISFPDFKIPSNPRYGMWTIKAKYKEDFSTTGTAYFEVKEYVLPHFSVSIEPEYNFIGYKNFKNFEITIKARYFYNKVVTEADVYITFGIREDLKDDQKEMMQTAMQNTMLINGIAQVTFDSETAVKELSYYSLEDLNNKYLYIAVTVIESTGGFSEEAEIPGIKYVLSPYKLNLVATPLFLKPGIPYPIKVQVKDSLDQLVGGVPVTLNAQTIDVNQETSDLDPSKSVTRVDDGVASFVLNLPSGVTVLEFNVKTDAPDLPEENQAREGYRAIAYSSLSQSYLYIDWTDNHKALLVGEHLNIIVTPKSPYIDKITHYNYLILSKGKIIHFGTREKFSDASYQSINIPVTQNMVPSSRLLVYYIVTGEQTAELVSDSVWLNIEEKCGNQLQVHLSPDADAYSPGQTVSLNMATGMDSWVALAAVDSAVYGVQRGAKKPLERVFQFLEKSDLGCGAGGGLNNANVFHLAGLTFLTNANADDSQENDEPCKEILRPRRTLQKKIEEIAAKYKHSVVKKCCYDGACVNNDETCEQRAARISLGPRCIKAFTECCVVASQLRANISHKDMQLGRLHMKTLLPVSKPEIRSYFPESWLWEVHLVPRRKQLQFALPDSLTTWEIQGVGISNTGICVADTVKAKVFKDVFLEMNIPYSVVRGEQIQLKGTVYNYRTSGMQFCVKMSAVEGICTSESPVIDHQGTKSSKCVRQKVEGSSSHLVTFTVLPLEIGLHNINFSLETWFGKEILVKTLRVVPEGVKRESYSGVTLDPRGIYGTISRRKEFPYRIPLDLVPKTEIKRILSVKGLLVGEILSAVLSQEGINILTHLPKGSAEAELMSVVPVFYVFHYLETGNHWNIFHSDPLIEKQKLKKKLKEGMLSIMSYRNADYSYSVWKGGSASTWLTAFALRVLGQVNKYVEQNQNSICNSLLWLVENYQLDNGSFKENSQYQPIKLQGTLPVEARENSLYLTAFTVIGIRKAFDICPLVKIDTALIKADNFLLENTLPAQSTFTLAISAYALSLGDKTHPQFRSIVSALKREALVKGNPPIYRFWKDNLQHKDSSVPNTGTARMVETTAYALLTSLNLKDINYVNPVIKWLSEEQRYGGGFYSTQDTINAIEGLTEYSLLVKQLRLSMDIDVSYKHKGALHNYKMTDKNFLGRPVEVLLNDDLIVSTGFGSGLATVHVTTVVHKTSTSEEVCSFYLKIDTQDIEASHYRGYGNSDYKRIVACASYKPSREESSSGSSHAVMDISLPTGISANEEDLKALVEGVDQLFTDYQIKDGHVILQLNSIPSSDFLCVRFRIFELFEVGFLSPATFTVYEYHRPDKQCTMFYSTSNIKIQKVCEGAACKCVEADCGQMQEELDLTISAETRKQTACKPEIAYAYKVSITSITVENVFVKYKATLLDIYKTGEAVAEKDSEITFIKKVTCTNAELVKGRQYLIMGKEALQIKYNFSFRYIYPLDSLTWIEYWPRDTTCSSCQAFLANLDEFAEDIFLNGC

T1 sequence (P01031 19-1676): as above
Chain of human C5 complement protein (P01031 19-1676): as above

Row | SMILES | Kd [1] [nM] | IC50 (Human C5 [2]) [nM] | Kd (Human C5 [3]) [nM] | IC50 (purified human C5) [nM]
1 | CCCCCOc1cc(N2CCCN(Cc3ccnc4c3ccn4C3CCN(C)C3=O)C2=O)ccc1OC (single isomer, unassigned) [CU0039(1)] | 28 | 30 |  | 
2 | CCCCCOc1cc(N2CCCN(Cc3ccnc4c3ccn4C3CCN(C)C3=O)C2=O)ccc1OC (single isomer, unassigned) [CU0039(2)] | 6.5 | 30.1 |  | 
3 | CCCCCOc1cc(N2CCN(Cc3ccccc3OC)C2=O)ccc1OC [CU0001] | 29.5 | 35.6 |  | 
4 | CCCCCOc1cc(N2CCN(Cc3cc(F)ccc3OC)C2=O)ccc1OC [CU0002] | 83.5 | 42 |  | 
5 | CCCCCOc1cc(N2CCCN(Cc3cc(F)ccc3OC)C2=O)ccc1OC [CU0003] | 14 | 28.4 |  | 
6 | CCCCCOc1cc(N2CCN(Cc3ccc(C(C)(C)O)cc3OC)C2=O)ccc1OC [CU0004] | 10.5 | 12.1 |  | 
7 | CCCCCOc1cc(N2CCCN(Cc3ccc(CCC(=O)N(CC)CC)cc3OC)C2=O)ccc1OC [CU0008] | 6.5 | 62.9 |  | 
8 | CCCCCOc1cc(N2CCCN(Cc3ccccc3Cl)C2=O)ccc1OC [CU0010] | 74.5 | 34.9 |  | 
9 | CCCCCOc1cc(N2CCN(Cc3cccc(F)c3Cl)C2=O)ccc1OC [CU0011] | 816 | 886 |  | 
10 | CCCCCOc1cc(N2CCCN(Cc3cccc(F)c3Cl)C2=O)ccc1OC [CU0012] | 326 | 128 |  | 
11 | CCCCCOc1cc(N2CCN(Cc3cc(F)ccc3Cl)C2=O)ccc1OC [CU0013] | 454 | 602 |  | 
12 | CCCCCOc1cc(N2CCCN(Cc3ccc(CC(=O)N4CCNC(=O)C4)cc3OC)C2=O)ccc1OC [CU0101] | 2.4 |  |  | 
13 | COc1ccc(NC(=O)N[C@@H](CO)c2ccccc2)cc1C#CCCC(C)C [SM0014] |  |  | 63 | 335
14 | COc1ccc(NC(=O)NCc2ccc(O)c(O)c2)cc1OCCCC(C)C [SM0015] |  |  | 196 | 342
15 | COc1ccc(NC(=O)NCc2cccc(O)c2)cc1OCCCC(C)C [SM0016] |  |  | 290 | 378
16 | COc1ccc(NC(=O)NCc2ccc(O)cc2)cc1OCCCC(C)C [SM0017] |  |  | 111 | 401
17 | COc1ccc(NC(=O)NC(CO)c2cccc(F)c2)cc1OCCCC(C)C (centres unmarked) [SM0018] |  |  | 114 | 420
18 | COc1ccc(NC(=O)N[C@@H](CO)c2ccccc2)cc1OCCC1CCCC1 [SM0019] |  |  | 39 | 450
19 | COc1ccc(NC(=O)N(C)Cc2ccccc2)cc1OCCCC(C)C [SM0021] |  |  | 368 | 533
20 | COc1ccc(NC(=O)NCc2ccc3[nH]ccc3c2)cc1OCCCC(C)C [SM0022] |  |  | 84 | 581
21 | COc1ccc(NC(=O)N[C@@H](CO)c2ccc(F)cc2)cc1OCCCC(C)C [SM0023] |  |  | 92 | 608
22 | COc1ccc(NC(=O)NC(CO)c2ccccc2F)cc1OCCCC(C)C (centres unmarked) [SM0024] |  |  | 130 | 614
23 | COc1ccc(NC(=O)N[C@@H](CO)c2ccccc2)cc1OCCCCC(F)(F)F [SM0025] |  |  | 620 | 675
24 | COc1ccc(NC(=O)NCc2ccccc2)cc1OCCCC(C)C [SM0026] |  |  | 97 | 685

Row | SMILES | Kd [1] [nM] | IC50 (Human C5 [2]) [nM] | Kd (Human C5 [3]) [nM] | IC50 (purified human C5) [nM]
25 | COc1ccc(NC(=O)N2CCC[C@H]2c2ccccc2)cc1OCCCC(C)C [SM0027] |  |  | 171 | 697
26 | COc1ccc(NC(=O)NC(CO)c2ccccc2F)cc1CCCCC(C)C (centres unmarked) [SM0029] |  |  | 239 | 901
27 | COc1cc(CNC(=O)Nc2ccc(OC)c(OCCCC(C)C)c2)ccc1O [SM0030] |  |  | 190 | 936
28 | COc1ccc(NC(=O)NCc2ccncc2)cc1OCCCC(C)C [SM0031] |  |  | 2700 | 983
29 | COc1ccc(NC(=O)NC(CO)c2ccco2)cc1OCCCC(C)C (centres unmarked) [SM0032] |  |  | 25 | 1040
30 | COc1ccc(NC(=O)N[C@@H](CO)c2ccccc2)cc1OCCCCCC(C)C [SM0033] |  |  | 410 | 1100
31 | C=CCCOc1cc(NC(=O)N[C@@H](CO)c2ccccc2)ccc1OC [SM0034] |  |  | 1400 | 1100
32 | COc1ccc(NC(=O)NC(CO)c2ccccc2C)cc1OCCCC(C)C (centres unmarked) [SM0036] |  |  | 4300 | 1240
33 | COc1ccc(NC(=O)NC(C)c2cccnc2)cc1OCCCC(C)C (centres unmarked) [SM0037] |  |  | 628 | 1320
34 | COc1ccc(NC(=O)N[C@@H](CO)c2ccccc2)cc1OCC(C)CC(C)C (some centres unmarked) [SM0038] |  |  | 800 | 1480
35 | COc1ccc(NC(=O)NCc2ccsc2)cc1OCCCC(C)C [SM0039] |  |  | 210 | 1490
36 | COc1ccc(NC(=O)NC(CO)c2ccccn2)cc1OCCCC(C)C (centres unmarked) [SM0040] |  |  | 110 | 1620
37 | COc1ncc(NC(=O)N[C@@H](CO)c2ccccc2)cc1OCCCC(C)C [SM0042] |  |  | 6400 | 2130
38 | COc1ccc(NC(=O)NCc2ccc(CN(C)C)cc2)cc1OCCCC(C)C [SM0043] |  |  | 1930 | 2140
39 | COc1ccc(NC(=O)NCc2cccc3ncccc23)cc1OCCCC(C)C [SM0044] |  |  | 74 | 2180
40 | COc1ccc(NC(=O)NCc2ccccn2)cc1OCCCC(C)C [SM0045] |  |  | 2800 | 2230
41 | COc1ccc(NC(=O)NCc2ccncc2)cc1C#CCCC(C)C [SM0046] |  |  | 8600 | 2240
42 | COc1cccc(CNC(=O)Nc2ccc(OC)c(OCCCC(C)C)c2)c1 [SM0047] |  |  | 830 | 2270
43 | COc1ccc(NC(=O)NCc2ccc(S(N)(=O)=O)cc2)cc1OCCCC(C)C [SM0048] |  |  | 7200 | 2540
44 | COc1ccc(NC(=O)NCc2cccnc2)cc1OCCCC(C)C [SM0049] |  |  | 4100 | 2790
45 | COc1ccc(NC(=O)NCc2ccccc2CO)cc1OCCCC(C)C [SM0050] |  |  | 102 | 2870
46 | COc1ccc(NC(=O)NCc2cccs2)cc1OCCCC(C)C [SM0052] |  |  | 564 | 3100
47 | COc1ccc(NC(=O)N[C@@H](CO)c2ccccc2)cc1OCCOC1CCC1 [SM0053] |  |  | 3350 | 3380
48 | COc1ccc(NC(=O)N(CCO)c2ccccc2)cc1OCCCC(C)C [SM0057] |  |  | 5300 | 4050

Row | SMILES | Kd [1] [nM] | IC50 (Human C5 [2]) [nM] | Kd (Human C5 [3]) [nM] | IC50 (purified human C5) [nM]
49 | COc1ccc(NC(=O)NCc2ccccc2F)cc1OCCCC(C)C [SM0058] |  |  | 500 | 4090
50 | COc1ccc(NC(=O)NCc2cscn2)cc1OCCCC(C)C [SM0059] |  |  | 113 | 4390
51 | C=C(NC(=O)Nc1ccc(OC)c(OCCCC(C)C)c1)c1ccccc1 [SM0061] |  |  | 3900 | 4990
52 | COc1ccc(NC(=O)N[C@@H](COC(C)=O)c2ccccc2)cc1OCCCC(C)C [SM0062] |  |  | 2000 | 5650
53 | COc1ccc(NC(=O)NCc2cccc(CN(C)C)c2)cc1OCCCC(C)C [SM0063] |  |  | 6370 | 6140
54 | COc1ccc(NC(=O)NC(CCO)c2ccccc2)cc1OCCCC(C)C (centres unmarked) [SM0064] |  |  | 6610 | 6450
55 | COc1ccc(NC(=O)NCc2ccc3nccn3c2)cc1OCCCC(C)C [SM0065] |  |  | 1600 | 6670
56 | COc1ccc(NC(=O)N[C@@H]2c3ccccc3C[C@@H]2O)cc1OCCCC(C)C [SM0066] |  |  | 290 | 6870
57 | COc1ccc(NC(=O)NCc2ccccc2C#N)cc1OCCCC(C)C [SM0067] |  |  | 172 | 7360
58 | COc1ccc(NC(=O)N[C@@H](COC(N)=O)c2ccccc2)cc1OCCCC(C)C [SM0068, (R)-2-(3-(4-methoxy-3-((4-methylpentyl)oxyureido)-2-phenylethyl carbamate] |  |  | 2600 | 7360
59 | COc1ccc(NC(=O)Nc2ccccc2O)cc1OCCCC(C)C [SM0069] |  |  | 140 | 7720
60 | CC(C)CCCOc1cccc(NC(=O)N[C@@H](CO)c2ccccc2)c1 [SM0070, 1-[(1R)-2-hydroxy-1-phenyl-ethyl]-3-(3-isohexyloxyphenyl)urea] |  |  | 4800 | 8600
61 | COc1ccc(NC(=O)N(C)CC(O)c2ccc(O)cc2)cc1OCCCC(C)C (centres unmarked) [SM0071, 1-[2-hydroxy-2-(4-hydroxyphenyl)ethyl]-3-(3-isohexyloxy-4-methoxy-phenyl)-1-methyl-urea] |  |  | 2100 | 8660
62 | COc1ccc(NC(=O)N[C@@H](CO)c2ccccc2)cc1OCCC(C)C [SM0072] |  |  | 8200 | 8680
63 | COc1ccc(NC(=O)N[C@@H](CO)c2ccccc2)cc1C(F)(F)F [SM0073] |  |  | 3200 | 9260
64 | COc1ccc(NC(=O)NCC(O)c2ccc(O)cc2)cc1OCCCC(C)C (centres unmarked) [SM0074] |  |  | 3600 | 9360
65 | CC(C)CCCOc1cc(NC(=O)N[C@@H](CO)c2ccccc2)ccc1F [SM0075] |  |  | 1300 | 11500
66 | COc1ccc(NC(=O)NCc2cccc(C#N)c2)cc1OCCCC(C)C [SM0076] |  |  | 9400 | 11700
67 | COc1ccc(NC(=O)NCC(O)c2ccccn2)cc1OCCCC(C)C (centres unmarked) [SM0078] |  |  | 3600 | 12600
68 | COc1ccc(NC(=O)NCc2cnccn2)cc1OCCCC(C)C [SM0080] |  |  | 144 | 13000
69 | COc1ccc(NC(=O)NCC(O)c2ccccc2)cc1OCCCC(C)C (centres unmarked) [SM0081] |  |  | 1600 | 13000
70 | COc1ccc(NC(=O)N[C@@H](CO)c2ccccc2)cc1OCCOC(C)C [SM0083] |  |  | 6400 | 15400
71 | COCCCOc1cc(NC(=O)N[C@@H](CO)c2ccccc2)ccc1OC [SM0084] |  |  | 310 | 16100
72 | CCCCCc1cccc(NC(=O)N[C@@H](CO)c2ccccc2)c1 [SM0087] |  |  | 9900 | 16700
